“And” between values parts separate entries of the source, which are not always exact repeats. Equal values may be shown once.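 Interpolation was linear, between the two tested concentrations surrounding the appropriate level; five concentrations were tested over 48 hours in 96-well plates. GI50 marks 50% less growth. Definition used: TGI = concentration required for complete inhibition of growth.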
Assays:
Test in all cases: growth of human tumour cells (NCI), 48 h
A549 NSCLC = test system: A549 NSCLC
ACHN renal = test system: ACHN renal
LOX IMVI melanoma = test system: LOX IMVI melanoma
M14 melanoma = test system: M14 melanoma
MOLT-4 leukemia = test system: MOLT-4 leukemia
OVCAR-3 ovarian = test system: OVCAR-3 ovarian
SNB-19 CNS = test system: SNB-19 CNS
SR leukemia = test system: SR leukemia
T-47D breast = test system: T-47D breast
TK-10 renal = test system: TK-10 renal

Row | Structure (SMILES) | TGI (A549 NSCLC) [µM] | TGI (ACHN renal) [µM] | TGI (LOX IMVI melanoma) [µM] | TGI (M14 melanoma) [µM] | TGI (MOLT-4 leukemia) [µM] | TGI (OVCAR-3 ovarian) [µM] | TGI (SNB-19 CNS) [µM] | TGI (SR leukemia) [µM] | TGI (T-47D breast) [µM] | TGI (TK-10 renal) [µM] | GI50 (A549 NSCLC) [µM] | GI50 (ACHN renal) [µM] | GI50 (LOX IMVI melanoma) [µM] | GI50 (M14 melanoma) [µM] | GI50 (MOLT-4 leukemia) | GI50 (OVCAR-3 ovarian) [µM] | GI50 (SNB-19 CNS) [µM] | GI50 (SR leukemia) | GI50 (T-47D breast) [µM] | GI50 (TK-10 renal) [µM]
1 | CC(=O)c1cccn1/C=C(\OC(=O)OC(C)(C)C)c1ccc[nH]1 | > 100 | > 100 | > 100 | > 100 | > 100 | > 100 | > 100 | > 100 | > 100 | > 100 |  |  |  |  |  |  |  |  |  | 
2 | c1ccc2c(c1)c1c(n2CCOCCN2CCOCC2)CCCC1 | > 100 | > 100 | 63.6 | 30.9 | 69.8 | > 100 | > 100 | > 100 | > 100 | 58.6 |  |  |  |  |  |  |  |  |  | 
3 | CCc1c[n+]([O-])c(C)cc1[N+](=O)[O-] | > 100 | 47.3 | > 100 | > 100 | > 100 | > 100 | > 100 | > 100 | > 100 | > 100 |  |  |  |  |  |  |  |  |  | 
4 | c1csc(-c2ccc(-c3cccs3)c3nsnc23)c1 | > 100 | > 100 | > 61.9 | > 100 | 30.3 | > 57.4 | > 100 | 39.9 | 1.8 | > 100 |  |  |  |  |  |  |  |  |  | 
5 | NNC1=N/C(=C\c2ccco2)C(Cl)=N1 | > 100 | > 100 | 70.8 | > 100 | 34.9 | > 100 | > 100 | 72.1 | > 100 | > 100 |  |  |  |  |  |  |  |  |  | 
6 | CCC1=NC(C(F)(F)F)(C(F)(F)F)N=C(N2CCOCC2)O1 | > 100 | > 100 | > 100 | > 100 | > 100 | > 100 | > 100 | > 100 | > 100 | > 100 |  |  |  |  |  |  |  |  |  | 
7 | COC(=O)CN1c2nc(C#N)c(C#N)nc2N(CC(=O)OC)c2nc(C#N)c(C#N)nc21 | > 82.8 | 5.72 | > 20.1 | 5.31 | > 22 | 18.8 | > 65.9 | 6.66 | 8.6 | 6.78 |  |  |  |  |  |  |  |  |  | 
8 | Cc1cn(-c2cc(C(=O)Nc3cccc(-n4ccc5c(NC(=O)c6ccccc6)nccc54)c3)cc(C(F)(F)F)c2)cn1 | 5.34 | 8.7 | 2.07 | 3.29 | 10.6 | 1.03 | 25.5 |  | 24.2 | 5.27 | 0.502 | 0.549 | 0.379 | 0.452 | 0.531 µM | 0.313 | 0.579 | 0.14 µM | 1.9 | 0.855
9 | CCOC(=O)C1(C(=O)OCC)COS(=O)OC1 | > 100 | > 100 | 28.4 | > 100 | 56.4 | 42.1 | > 100 | > 100 | 50.8 | > 100 |  |  |  |  |  |  |  |  |  | 
10 | C/C1=C\CC[C@@]2(C)O[C@@H]2C[C@@H](C2(C)CO2)CC/C(C)=C/CC1 (stereo partly specified) | 36.5 | 35.1 | 28.8 | 54.7 | > 100 | 48.9 | 41.3 | > 100 | 78.3 | 32.5 |  |  |  |  |  |  |  |  |  | 
11 | O=c1ccn(C2OC(CO)C(P(=O)(O)O)C2O)c(=O)[nH]1 (stereo unspecified) | > 100 | > 100 | > 100 | > 100 | > 100 | > 100 | > 100 | > 100 | > 100 | > 100 |  |  |  |  |  |  |  |  |  | 
12 | COc1ccc(-c2c3c([nH]c(=S)c2C#N)CC(C)(C)CC3=O)cc1 | > 100 | > 100 | > 100 | > 100 | > 100 | > 100 | > 100 | > 100 | > 100 | > 100 |  |  |  |  |  |  |  |  |  | 
13 | CC[n+]1[b-](C(C)(C)C)n(/N=C/C(C)(C)C)[b-](C(C)(C)C)[n+]1CC | > 100 | > 100 | > 100 | > 100 | > 100 | > 100 | > 100 | > 100 | > 100 | > 100 |  |  |  |  |  |  |  |  |  | 
14 | COC(=O)c1cc2c(cc1CC1Cc3cc4c(cc3C1)CCC4)CCC2 | > 100 | > 100 | 55 | > 100 | 36.9 | > 100 | > 100 | 47.2 | > 100 | > 100 |  |  |  |  |  |  |  |  |  | 
15 | CCCCNC(=S)N/N=C/c1cccc(C)n1 | > 100 | 68 | > 100 | 48.6 | 55.1 | > 100 | > 100 | > 100 | > 100 | 97.6 |  |  |  |  |  |  |  |  |  | 
16 | C[C@@H](Cl)[C@H]1CCCN(Cc2ccc(Br)cc2)C1 | > 12.5 | > 12.5 | > 12.5 | > 12.5 | > 12.5 | > 12.5 | > 12.5 | > 12.5 | > 12.5 | > 12.5 |  |  |  |  |  |  |  |  |  | 
17 | COc1ccc(S(=O)(=O)N2C(=O)CCC2C(=O)NN)cc1 (stereo unspecified) | > 100 | > 100 | > 100 | > 100 | > 100 | > 100 | > 100 | > 100 | > 100 | > 100 |  |  |  |  |  |  |  |  |  | 
18 | COC(=O)CCc1cc(OC)c2c(c1)[C@H](C(=O)OC)[C@@H](c1ccc(O)c(OC)c1)O2 | > 100 | > 100 | > 100 | > 100 | > 100 | > 100 | > 100 | 19.1 | > 100 | > 100 |  |  |  |  |  |  |  |  |  | 
19 | NCCCN1CCN(CCCNc2ccc3nnn4c5ccccc5c(=O)c2c34)CC1 | > 100 | 73.7 | 26.8 | 38.4 | > 100 | > 100 | 46.4 | > 100 | > 100 | > 100 |  |  |  |  |  |  |  |  |  | 
20 | C=CCNC(=S)N=Nc1c(O)[nH]c2ccc([N+](=O)[O-])cc12 | > 100 | > 100 | > 100 | > 100 | > 100 | > 100 | > 100 | > 100 | 87.4 | > 100 |  |  |  |  |  |  |  |  |  | 
21 | COC(C)(C)[C@@H](O)[C@H]1C[C@H](C)[C@@]2(CC[C@]3(C)[C@@H]2CC[C@@H]2[C@@]4(C)CC[C@@H](OC(C)=O)C(C)(C)[C@@H]4C[C@@H](OC4OC(COC(C)=O)C(O)C(O)C4O)[C@]23C)O1 (stereo partly specified) | 15.3 | 18.3 | 14.9 | 16.5 | 10.7 | 15.3 | 21.3 | 5.25 | 15.1 | 24.6 |  |  |  |  |  |  |  |  |  | 
22 | O=C(O)c1cc(-c2ccc3c(O)c(O)ccc3c2)ccc1O | > 75 | > 75 | 34.9 | 70.6 | 33.2 | > 75 | > 75 | 42 | > 75 | > 75 |  |  |  |  |  |  |  |  |  | 
23 | COC(=O)c1c2c(cc3c1CCC3)CCC2 | > 100 | > 100 | > 100 | > 100 | > 100 | > 100 | > 100 | 44.8 | 43.9 | > 100 |  |  |  |  |  |  |  |  |  | 
24 | C=C1c2cc3c(cc2CC12Cc1cc4c(cc1C2=O)CCC4)CCC3 (stereo unspecified) | > 100 | > 100 | > 100 | > 100 | > 100 | > 100 | > 100 | > 100 | > 100 | > 100 |  |  |  |  |  |  |  |  |  | 
25 | Cc1cc(-c2nc3ccccc3s2)ccc1NC(=O)[C@@H](N)CCCCN | 12.7 | 30.8 | 5.92 | 7.88 | 17.1 | 26.3 | 29.4 | > 54.7 | 1.14 | 23.2 |  |  |  |  |  |  |  |  |  | 
26 | NC(CC1=CS(=O)(=O)c2ccc(Cl)cc21)C(=O)O (stereo unspecified) | > 100 | > 100 | > 100 | > 100 | > 100 | > 100 | > 100 | > 100 | > 100 | > 100 |  |  |  |  |  |  |  |  |  | 
27 | COc1nc2ncc([C@@H](OC(C)=O)[C@@H](COC(C)=O)OC(C)=O)nc2c(=O)[nH]1 | > 100 | > 100 | > 100 | > 100 | > 100 | > 100 | > 100 | > 100 | > 100 | > 100 |  |  |  |  | > 100 µM and 49.9 µM |  |  | > 100 µM and 39.4 µM |  | 

Source: PubChem BioAssay (NCI)
